Patent publication US10633386B2, “BET protein degraders” (THE REGENTS OF THE UNIVERSITY OF MICHIGAN, priority 2016, dated 2020)
Like-named read-outs stand apart in the source and are kept apart here. Each block holds one compound with its values, some of them ahead of it.

Key:
SKCO-1 = test: Cell growth inhibition (CellTiter-Glo), colon cancer line SKCO-1; assay type: cell-based; conditions: SKCO-1 colon cancer cell line
Method: (§1) Cell growth inhibitory activity of representative BET bromodomain degraders in representative non-small cell lung cancer cell lines was determined using the CellTiter-Glo® Luminescent Cell Viability Assay. Cells were seeded in 384-well white opaque cell culture plates at a density of 2,000 cells/well with serially diluted compounds and incubated at 37° C. in an atmosphere of 95% air and 5% CO2 for 4 days. Cell viability was determined using the CellTiter-Glo® Luminescent Cell Viability Assay Kit (Promega, Madison, Wis.) according to the manufacture's instruction. Briefly, a volume of CellTiter-Glo® Reagent equal to the volume of cell culture medium was added to each well, and then the plates were incubated at room temperature for 10-20 minutes. The luminescent signal was measured using a Tecan Infinite M1000 multimode microplate reader (Tecan, Morrisville, N.C.). The half maximal inhibitory concentration (IC50) was calculated using the GraphPad Prism 5 software (GraphPad Software, La Jolla, Calif.). Cpd. A is a BET bromodomain inhibitor, see U.S. Appl. No. 62/121,637, having the following structure:
(§2) Cell growth inhibitory activity of representative BET bromodomain degraders in representative colon cancer cell lines, see Table 7, was determined as described in Example 17.

SW1412 = test: Cell growth inhibition (CellTiter-Glo), colon cancer line SW1412; assay type: cell-based
Method: as §1, §2

LS1034 = test: Cell growth inhibition (CellTiter-Glo), colon cancer line LS1034; assay type: cell-based
Method: as §1, §2

A549 = test: Cell growth inhibition (CellTiter-Glo), NSCLC line A549; assay type: cell-based; conditions: A549 non-small cell lung cancer cell line, 4 days
Method: as §1, with “Appl.” for “Appl. No. 62/121,637, having the following structure:”

H2170 = test: Cell growth inhibition (CellTiter-Glo), NSCLC line H2170; assay type: cell-based; conditions: H2170 non-small cell lung cancer cell line, 4 days
Method: as §1, with “Appl.” for “Appl. No. 62/121,637, having the following structure:”

HCC1187 = test: Cell growth inhibition (CellTiter-Glo), breast cancer line HCC1187; assay type: cell-based; conditions: 4 days
Method: (§3) Cell growth inhibitory activity of representative BET bromodomain degraders in representative breast cancer cell lines was determined using the CellTiter-Glo® Luminescent Cell Viability Assay. SUM-52 and SUM-159 cell lines were established at the University of Michigan Comprehensive Cancer Center. All the other breast cancer cell lines were obtained from the ATCC (Manassas, Va.). Cells were seeded in 384-well cell culture plates at a density of 1,000-2,500 cells/well with serially diluted compounds and incubated at 37° C. in an atmosphere of 95% air and 5% CO2 for 4 days. Cell viability was determined using the CellTiter-Glo® Luminescent Cell Viability Assay Kit (Promega, Madison, Wis.) according to the manufacture's instruction. Briefly, a volume of CellTiter-Glo® Reagent equal to the volume of cell culture medium was added to each well, and then the plates were incubated at room temperature for 20-60 minutes. The luminescent signal was measured using a Tecan Infinite M1000 multimode microplate reader (Tecan, Morrisville, N.C.). The half maximal inhibitory concentration (IC50) was calculated using the GraphPad Prism 5 software (GraphPad Software, La Jolla, Calif.). “Thd” is thalidomide.

MDA-MB-231 = test: Cell growth inhibition (CellTiter-Glo), breast cancer line MDA-MB-231; assay type: cell-based, human; conditions: MDA-MB-231 breast cancer cell line, 4 days
Method: as §3

LS123 = test: Cell growth inhibition (CellTiter-Glo), colon cancer line LS123; assay type: cell-based
Method: as §1, §2

H1975 = test: Cell growth inhibition (CellTiter-Glo), NSCLC line H1975; assay type: cell-based; conditions: H1975 non-small cell lung cancer cell line, 4 days
Method: as §1, with “Appl.” for “Appl. No. 62/121,637, having the following structure:”

LS411N = test: Cell growth inhibition (CellTiter-Glo), colon cancer line LS411N; assay type: cell-based
Method: as §1, §2

HCC1954 = test: Cell growth inhibition (CellTiter-Glo), breast cancer line HCC1954; assay type: cell-based; conditions: 4 days
Method: as §3

HCC70 = test: Cell growth inhibition (CellTiter-Glo), breast cancer line HCC70; assay type: cell-based; conditions: 4 days
Method: as §3

HCC38 = test: Cell growth inhibition (CellTiter-Glo), breast cancer line HCC38; assay type: cell-based; conditions: 4 days
Method: as §3

H1869 = test: Cell growth inhibition (CellTiter-Glo), NSCLC line H1869; assay type: cell-based; conditions: H1869 non-small cell lung cancer cell line, 4 days
Method: as §1, with “Appl.” for “Appl. No. 62/121,637, having the following structure:”

HCC1428 = test: Cell growth inhibition (CellTiter-Glo), breast cancer line HCC1428; assay type: cell-based; conditions: 4 days
Method: as §3

SW948 = test: Cell growth inhibition (CellTiter-Glo), colon cancer line SW948; assay type: cell-based
Method: as §1, §2

SW1463 = test: Cell growth inhibition (CellTiter-Glo), colon cancer line SW1463; assay type: cell-based
Method: as §1, §2

SW480 = test: Cell growth inhibition (CellTiter-Glo), colon cancer line SW480; assay type: cell-based
Method: as §1, §2

H1650 = test: Cell growth inhibition (CellTiter-Glo), NSCLC line H1650; assay type: cell-based; conditions: H1650 non-small cell lung cancer cell line, 4 days
Method: as §1, with “Appl.” for “Appl. No. 62/121,637, having the following structure:”

H2444 = test: Cell growth inhibition (CellTiter-Glo), NSCLC line H2444; assay type: cell-based; conditions: H2444 non-small cell lung cancer cell line, 4 days
Method: as §1, with “Appl.” for “Appl. No. 62/121,637, having the following structure:”

MDA-MB-157 = test: Cell growth inhibition (CellTiter-Glo), breast cancer line MDA-MB-157; assay type: cell-based; conditions: MDA-MB-157 breast cancer cell line, 4 days
Method: as §3

H647 = test: Cell growth inhibition (CellTiter-Glo), NSCLC line H647; assay type: cell-based; conditions: H647 non-small cell lung cancer cell line, 4 days
Method: as §1, with “Appl.” for “Appl. No. 62/121,637, having the following structure:”

H2228 = test: Cell growth inhibition (CellTiter-Glo), NSCLC line H2228; assay type: cell-based; conditions: H2228 non-small cell lung cancer cell line, 4 days
Method: as §1, with “Appl.” for “Appl. No. 62/121,637, having the following structure:”

Compound: CCn1nc(C2CC2)cc1Nc1nc(COC)nc2[nH]c3cc(-c4c(C)noc4C)c(OC)cc3c12 [Cpd. A, reference compound]
IC50 (SKCO-1; Homo sapiens, SK-CO-1): 1080 ± 240 nM
IC50 (SW1412): 40 ± 20 nM
IC50 (LS1034; Homo sapiens, LS-1034): 455 ± 430 nM
IC50 (A549; Homo sapiens, 96 h): 20 nM
IC50 (H2170; Homo sapiens, NCI-H2170, 96 h): 20 nM
IC50 (HCC1187; Homo sapiens, 96 h): 960 nM
IC50 (MDA-MB-231; Homo sapiens, 96 h): 220 nM
IC50 (LS123; Homo sapiens, LS-123): 739 ± 680 nM
IC50 (H1975; Homo sapiens, NCI-H1975, 96 h): 40 nM
IC50 (LS411N; Homo sapiens, LS-411N): 110 ± 90 nM
IC50 (HCC1954; Homo sapiens, 96 h): 1620 nM
IC50 (HCC70; Homo sapiens, 96 h): 580 nM
IC50 (HCC38; Homo sapiens, 96 h): 60 nM
IC50 (H1869; 96 h): 60 nM
IC50 (HCC1428; Homo sapiens, 96 h): 50 nM
IC50 (SW948; Homo sapiens): > 2500 nM
IC50 (SW1463; Homo sapiens): > 2500 nM
IC50 (SW480; Homo sapiens): 567 ± 10 nM
IC50 (H1650; Homo sapiens, NCI-H1650, 96 h): 430 nM
IC50 (H2444; Homo sapiens, NCI-H2444, 96 h): 2720 nM
IC50 (MDA-MB-157; Homo sapiens, 96 h): 860 nM
IC50 (H647; Homo sapiens, NCI-H647, 96 h): 80 nM
IC50 (H2228; Homo sapiens, NCI-H2228, 96 h): 2400 nM

IC50 (SKCO-1): > 5000 nM
IC50 (SW1412): > 5000 nM
IC50 (LS1034): > 5000 nM
IC50 (A549): > 5000 nM
IC50 (H2170): > 5000 nM
IC50 (HCC1187): > 5000 nM
IC50 (MDA-MB-231): 1830 nM
IC50 (LS123): > 5000 nM
IC50 (H1975): > 5000 nM
IC50 (LS411N): > 5000 nM
IC50 (HCC1954): 3760 nM
IC50 (HCC38): 3700 nM
IC50 (H1869): > 5000 nM
IC50 (HCC1428): > 5000 nM
IC50 (SW948): > 5000 nM
IC50 (SW1463): 2730 ± 300 nM
IC50 (SW480): > 5000 nM
IC50 (H1650): 2300 nM
IC50 (H2444): 3000 nM
IC50 (MDA-MB-157): 1170 nM
IC50 (H647): > 5000 nM
IC50 (H2228): > 5000 nM
Compound: Cc1sc2c(c1C)C(c1ccc(Cl)cc1)=N[C@@H](CC(=O)NCCCCNC(=O)COc1cccc3c1C(=O)N(C1CCC(=O)NC1=O)C3=O)c1nnc(C)n1-2 (stereo partly shown) [dBET1, reference compound]
IC50 (HCC70): > 5000 nM

Compound: CCn1nc(C2CC2)cc1Nc1nc(C(=O)NCCCOCCOCCOCCCNc2cccc3c2C(=O)N(C2CCC(=O)NC2=O)C3=O)nc2[nH]c3cc(-c4c(C)noc4C)c(OC)cc3c12 (stereo not shown) [Cpd. No. 4]
IC50 (SKCO-1; Homo sapiens, SK-CO-1): 8 ± 4 nM
IC50 (SW1412): 9 ± 4 nM
IC50 (LS1034; Homo sapiens, LS-1034): 97 ± 20 nM
IC50 (A549; Homo sapiens, 96 h): 119 nM
IC50 (H2170; Homo sapiens, NCI-H2170, 96 h): 99 nM
IC50 (HCC1187; Homo sapiens, 96 h): 3 nM
IC50 (MDA-MB-231; Homo sapiens, 96 h): 4 nM
IC50 (LS123; Homo sapiens, LS-123): 11 ± 10 nM
IC50 (H1975; Homo sapiens, NCI-H1975, 96 h): 3 nM
IC50 (LS411N; Homo sapiens, LS-411N): 100 ± 60 nM
IC50 (HCC1954; Homo sapiens, 96 h): 4 nM
IC50 (HCC70; Homo sapiens, 96 h): 35 nM
IC50 (HCC38; Homo sapiens, 96 h): 4 nM
IC50 (H1869; 96 h): 9 nM
IC50 (HCC1428; Homo sapiens, 96 h): 13 nM
IC50 (SW948; Homo sapiens): 197 ± 160 nM
IC50 (SW1463; Homo sapiens): 31 ± 10 nM
IC50 (SW480; Homo sapiens): 37 ± 10 nM
IC50 (H1650; Homo sapiens, NCI-H1650, 96 h): 4 nM
IC50 (H2444; Homo sapiens, NCI-H2444, 96 h): 4 nM
IC50 (MDA-MB-157; Homo sapiens, 96 h): 2 nM
IC50 (H647; Homo sapiens, NCI-H647, 96 h): 598 nM
IC50 (H2228; Homo sapiens, NCI-H2228, 96 h): 174 nM

IC50 (SKCO-1; Homo sapiens, SK-CO-1): 23 ± 10 nM
IC50 (SW1412): 34 ± 20 nM
IC50 (LS1034; Homo sapiens, LS-1034): 368 ± 170 nM
IC50 (A549; Homo sapiens, 96 h): 157 nM
IC50 (H2170; Homo sapiens, NCI-H2170, 96 h): 195 nM
IC50 (LS123; Homo sapiens, LS-123): 74 ± 50 nM
IC50 (H1975; Homo sapiens, NCI-H1975, 96 h): 16 nM
IC50 (LS411N; Homo sapiens, LS-411N): 560 ± 380 nM
IC50 (H1869; 96 h): 93 nM
IC50 (SW948; Homo sapiens): 1000 ± 1070 nM
IC50 (SW1463; Homo sapiens): 191 ± 30 nM
IC50 (SW480; Homo sapiens): 247 ± 60 nM
IC50 (H1650; Homo sapiens, NCI-H1650, 96 h): 8 nM
IC50 (H2444; Homo sapiens, NCI-H2444, 96 h): 28 nM
IC50 (H647; Homo sapiens, NCI-H647, 96 h): 789 nM
IC50 (H2228; Homo sapiens, NCI-H2228, 96 h): 610 nM
Compound: CCn1nc(C2CC2)cc1Nc1nc(C(=O)NCCCCNc2cccc3c2C(=O)N(C2CCC(=O)NC2=O)C3=O)nc2[nH]c3cc(-c4c(C)noc4C)c(OC)cc3c12 (stereo not shown) [Cpd. No. 9]
